Test results reported in ChEMBL document CHEMBL3871284, “Structure-activity relationship-based screening of antibiotics against Gram-negative Acinetobacter baumannii” (Bioorg Med Chem, 2017).
The source made the active and inactive calls.

Legend:
[1] = Binding affinity to Acinetobacter baumannii His-tagged KAS3 expressed in Escherichia coli BL21(DE3) by isothermal titration calorimetry assay
[2] = Binding affinity to Acinetobacter baumannii His-tagged KAS3 expressed in Escherichia coli BL21(DE3) by tryptophan emission assay
Escherichia coli [3] = test: Antimicrobial activity against Escherichia coli KCTC 1682 after 16 hrs by broth microdilution assay; type: functional; details: KCTC 1682, 16 h
Acinetobacter baumannii [4] = test: Antimicrobial activity against Acinetobacter baumannii KCTC 2508 after 16 hrs by broth microdilution assay; type: functional; details: KCTC 2508, 16 h
Pseudomonas aeruginosa [5] = test: Antimicrobial activity against Pseudomonas aeruginosa KCTC 1637 after 16 hrs by broth microdilution assay; type: functional; details: KCTC 1637, 16 h
Staphylococcus aureus [6] = test: Antimicrobial activity against Staphylococcus aureus after 16 hrs by broth microdilution assay; type: functional
Bacillus subtilis = test: Antimicrobial activity against Bacillus subtilis after 16 hrs by broth microdilution assay; type: functional
[7] = test system: Staphylococcus epidermidis; test: Antimicrobial activity against Staphylococcus epidermidis after 16 hrs by broth microdilution assay; type: functional
Escherichia coli [8] = test: Antimicrobial activity against multidrug resistant Escherichia coli CCARM 1238 after 16 hrs by broth microdilution assay; type: functional; details: CCARM 1238, 16 h
Escherichia coli [9] = test: Antimicrobial activity against multidrug resistant Escherichia coli CCARM 1229 after 16 hrs by broth microdilution assay; type: functional; details: CCARM 1229, 16 h
Pseudomonas aeruginosa [10] = test: Antimicrobial activity against multidrug resistant Pseudomonas aeruginosa CCARM 2002 after 16 hrs by broth microdilution assay; type: functional; details: CCARM 2002, 16 h
Pseudomonas aeruginosa [11] = test: Antimicrobial activity against multidrug resistant Pseudomonas aeruginosa CCARM 2095 after 16 hrs by broth microdilution assay; type: functional; details: CCARM 2095, 16 h
Pseudomonas aeruginosa [12] = test: Antimicrobial activity against multidrug resistant Pseudomonas aeruginosa CCARM 2163 after 16 hrs by broth microdilution assay; type: functional; details: CCARM 2163, 16 h
Acinetobacter baumannii [13] = test: Antimicrobial activity against multidrug resistant Acinetobacter baumannii CCARM 12005 after 16 hrs by broth microdilution assay; type: functional; details: CCARM 12005, 16 h
Acinetobacter baumannii [14] = test: Antimicrobial activity against multidrug resistant Acinetobacter baumannii CCARM 12035 after 16 hrs by broth microdilution assay; type: functional; details: CCARM 12035, 16 h
Acinetobacter baumannii [15] = test: Antimicrobial activity against multidrug resistant Acinetobacter baumannii CCARM 12036 after 16 hrs by broth microdilution assay; type: functional; details: CCARM 12036, 16 h
Acinetobacter baumannii [16] = test: Antimicrobial activity against multidrug resistant Acinetobacter baumannii CCARM 12037 after 16 hrs by broth microdilution assay; type: functional; details: CCARM 12037, 16 h
Staphylococcus aureus [17] = test: Antimicrobial activity against Methicillin-resistant Staphylococcus aureus isolate 3114 after 16 hrs by broth microdilution assay; type: functional; details: isolate 3114, 16 h
Staphylococcus aureus [18] = test: Antimicrobial activity against Methicillin-resistant Staphylococcus aureus 3126 after 16 hrs by broth microdilution assay; type: functional; details: Staphylococcus aureus, 3126, 16 h
RAW264.7 = test: Antiinflammatory activity in mouse RAW264.7 cells assessed as inhibition of LPS-stimulated NO production at 10 to 20 uM after 24 hrs in presence of LPS; type: functional, cell-based
[19] = Antiinflammatory activity in mouse RAW264.7 cells assessed as inhibition of LPS-stimulated iNOS mRNA expression at 10 uM after 3 hrs in presence of LPS by RT-PCR analysis; type: functional; details: RAW264.7, 3 h
[20] = Antiinflammatory activity in mouse RAW264.7 cells assessed as inhibition of LPS-stimulated TNFalpha mRNA expression at 10 uM after 3 hrs in presence of LPS by RT-PCR analysis; type: functional; details: RAW264.7, 3 h
[21] = Antiinflammatory activity in mouse RAW264.7 cells assessed as inhibition of LPS-stimulated MIP1 mRNA expression at 10 uM after 3 hrs in presence of LPS by RT-PCR analysis; type: functional; details: RAW264.7, 3 h
[22] = Antiinflammatory activity in mouse RAW264.7 cells assessed as inhibition of LPS-stimulated MIP2 mRNA expression at 10 uM after 3 hrs in presence of LPS by RT-PCR analysis; type: functional; details: RAW264.7, 3 h
[23] = Antiinflammatory activity in mouse RAW264.7 cells assessed as inhibition of LPS-stimulated IL6 mRNA expression at 10 uM after 3 hrs in presence of LPS by RT-PCR analysis; type: functional; details: RAW264.7, 3 h
[24] = Antiinflammatory activity in mouse RAW264.7 cells assessed as inhibition of LPS-stimulated IL1beta mRNA expression at 10 uM after 3 hrs in presence of LPS by RT-PCR analysis; type: functional; details: RAW264.7, 3 h

Cc1ccc(/C=N/NCc2ccc(O)cc2O)cc1Cl
> 32 µg/mL: MIC (Escherichia coli [8]) | MIC (Escherichia coli [9]) | MIC (Pseudomonas aeruginosa [10]) | MIC (Staphylococcus aureus [18])
8 µg/mL: MIC (Staphylococcus aureus [6]) | MIC [7]
10.3%: inhibition at 10 µM [24]
916 nM: Kd [2]
32 µg/mL: MIC (Escherichia coli [3]) | MIC (Pseudomonas aeruginosa [11]) | MIC (Pseudomonas aeruginosa [12]) | MIC (Staphylococcus aureus [17])
2 µg/mL: MIC (Acinetobacter baumannii [4]) | MIC (Acinetobacter baumannii [14]) | MIC (Acinetobacter baumannii [15]) | MIC (Acinetobacter baumannii [16])
197 nM: Kd [1]
active: inhibition (RAW264.7)
4 µg/mL: MIC (Pseudomonas aeruginosa [5]) | MIC (Acinetobacter baumannii [13])
50.6%: inhibition at 10 µM [23]
> 70%: inhibition at 10 µM [19] | inhibition at 10 µM [20] | inhibition at 10 µM [21] | inhibition at 10 µM [22]
16 µg/mL: MIC (Bacillus subtilis)

CCCOc1ccc(/C=N/NCc2ccc(C(F)(F)F)cc2)c(O)c1
28800 nM: Kd [2]
> 32 µg/mL: MIC (Escherichia coli [3]) | MIC (Acinetobacter baumannii [4]) | MIC (Pseudomonas aeruginosa [5]) | MIC (Staphylococcus aureus [6]) | MIC (Bacillus subtilis) | MIC [7] | MIC (Escherichia coli [8]) | MIC (Escherichia coli [9]) | MIC (Pseudomonas aeruginosa [10]) | MIC (Pseudomonas aeruginosa [11]) | MIC (Pseudomonas aeruginosa [12]) | MIC (Acinetobacter baumannii [13]) | MIC (Acinetobacter baumannii [14]) | MIC (Acinetobacter baumannii [15]) | MIC (Acinetobacter baumannii [16]) | MIC (Staphylococcus aureus [17]) | MIC (Staphylococcus aureus [18])

COc1ccc(/C=N/NCc2ccc(C(=O)O)cc2)c(OC)c1
> 32 µg/mL: MIC (Escherichia coli [3]) | MIC (Acinetobacter baumannii [4]) | MIC (Pseudomonas aeruginosa [5]) | MIC (Staphylococcus aureus [6]) | MIC (Bacillus subtilis) | MIC [7] | MIC (Escherichia coli [8]) | MIC (Escherichia coli [9]) | MIC (Pseudomonas aeruginosa [10]) | MIC (Pseudomonas aeruginosa [11]) | MIC (Pseudomonas aeruginosa [12]) | MIC (Acinetobacter baumannii [13]) | MIC (Acinetobacter baumannii [14]) | MIC (Acinetobacter baumannii [15]) | MIC (Acinetobacter baumannii [16]) | MIC (Staphylococcus aureus [17]) | MIC (Staphylococcus aureus [18])
72500 nM: Kd [2]

CCOc1ccc(/C=N/NCc2ccc(Cl)c(Cl)c2)c(O)c1
> 100000 nM: Kd [2]
> 32 µg/mL: MIC (Escherichia coli [3]) | MIC (Acinetobacter baumannii [4]) | MIC (Pseudomonas aeruginosa [5]) | MIC (Staphylococcus aureus [6]) | MIC (Bacillus subtilis) | MIC [7] | MIC (Escherichia coli [8]) | MIC (Escherichia coli [9]) | MIC (Pseudomonas aeruginosa [10]) | MIC (Pseudomonas aeruginosa [11]) | MIC (Pseudomonas aeruginosa [12]) | MIC (Acinetobacter baumannii [13]) | MIC (Acinetobacter baumannii [14]) | MIC (Acinetobacter baumannii [15]) | MIC (Acinetobacter baumannii [16]) | MIC (Staphylococcus aureus [17]) | MIC (Staphylococcus aureus [18])

COc1ccc(O)c(/C=N/NCc2cccc(C(F)(F)F)c2)c1
> 32 µg/mL: MIC (Escherichia coli [3]) | MIC (Acinetobacter baumannii [4]) | MIC (Pseudomonas aeruginosa [5]) | MIC (Staphylococcus aureus [6]) | MIC (Bacillus subtilis) | MIC [7] | MIC (Escherichia coli [8]) | MIC (Escherichia coli [9]) | MIC (Pseudomonas aeruginosa [10]) | MIC (Pseudomonas aeruginosa [11]) | MIC (Pseudomonas aeruginosa [12]) | MIC (Acinetobacter baumannii [13]) | MIC (Acinetobacter baumannii [14]) | MIC (Acinetobacter baumannii [15]) | MIC (Acinetobacter baumannii [16]) | MIC (Staphylococcus aureus [17]) | MIC (Staphylococcus aureus [18])
> 100000 nM: Kd [2]

Oc1ccc(/C=N/NCc2cccc(C(F)(F)F)c2)cc1
50.6%: inhibition at 10 µM [23]
> 32 µg/mL: MIC (Escherichia coli [8]) | MIC (Escherichia coli [9]) | MIC (Pseudomonas aeruginosa [10]) | MIC (Pseudomonas aeruginosa [11]) | MIC (Pseudomonas aeruginosa [12]) | MIC (Staphylococcus aureus [17]) | MIC (Staphylococcus aureus [18])
8 µg/mL: MIC (Acinetobacter baumannii [4])
127 nM: Kd [1]
16 µg/mL: MIC (Acinetobacter baumannii [13]) | MIC (Acinetobacter baumannii [14]) | MIC (Acinetobacter baumannii [15]) | MIC (Acinetobacter baumannii [16])
> 70%: inhibition at 10 µM [19] | inhibition at 10 µM [20] | inhibition at 10 µM [21] | inhibition at 10 µM [22]
32 µg/mL: MIC (Escherichia coli [3]) | MIC (Pseudomonas aeruginosa [5]) | MIC (Staphylococcus aureus [6]) | MIC (Bacillus subtilis) | MIC [7]
63.5%: inhibition at 10 µM [24]
220 nM: Kd [2]
active: inhibition (RAW264.7)
